“And” between values parts separate entries of the source, which are not always exact repeats. Identical values can stand only once.

Data on 1 molecule can be found in patent publication US5919457A, “TXU-5/B53-PAP antiviral biotherapeutic agent for the treatment of AIDS” (priority 1996, dated 1999).

Test [1] relates to HIV-1 isolate G-9106 (zidovudine-resistant). As to conditions: read-out: IC50 (concentration at which 50% of the reverse transcriptase activity is inhibited); cited from earlier work.
The test system of test [2] is HIV-1. Set-up: species or system Hu-PBL-SCID mice. As to conditions: mouse, in vivo.
Test [3] concerns HIV-1. The arrangement: species or system Hu-PBL-SCID mice. As to conditions: mouse, in vivo. The protocol:
Mutant C.B 17 mice are used as model systems to examine the in vivo homing, engraftment, and growth patterns of normal and malignant human hematopoictic cells. Lapidot et al., Blood, 80, 32a (1992). […] Mosier et al., Science, 251, 791 (1991). […] Mosier et al., cited supra. Hu-PBL-SCID mice were generated as described previously. Mosier et al., cited supra. Non-toxic doses of TXU-5/B53-PAP (20%-50% of LD10) were administered intraperitoneally by injecting half of the total dose as a bolus and delivering the remainder i.p. over 2 weeks using Alzet micro-osmotic pumps.
Two weeks after infection with HIV-1, mice were electively killed and fresh peritoneal lavage cells as well as spleen cells were isolated, cocultured with phytohemagglutinin(PHA)-stimulated human peripheral blood mononuclear cells from an HIV-1 antibody negative donor, and culture supernatants were tested every 3-4 days for a maximum of 28 days for the presence of HIV-1 antigen with a commercially available enzyme immunoassay (Abbott Laboratories, North Chicago, Ill.) that detects primarily the core p24 antigen of HIV-1, as previously described. Goudsmit et al., J. Infectious Diseases, 155, 558 (1987). In addition to this culture method, DNA was also isolated from the peritoneal lavage cells as well as splenocytes for detection of HIV-1 DNA by PCR amplification of a 115 b.p. sequence in the gag region of the HIV-1 genome using two 29-base oligonucleotide primers, SK38 and SK39, that flank the region to be amplified. Ou C-Y et al., Science, 239, 295 (1988) DNA samples were also examined for the presence of human DNA by PCR amplification of a 110-bp fragment from the first exon of the human β-globin gene using two 20-base oligonucleotide primers, PCO3 and PCO4, that flank the region to be amplified, as previously described by Uckun et al. in Blood, 79, 2201 (1992).
This is another data set of the same source.

Test [4] has as its system HIV-1 isolate G-6912 (zidovudine-resistant). As to conditions: read-out: IC50 (concentration at which 50% of the reverse transcriptase activity is inhibited); cited from earlier work.

In the case of `Cc1cn([C@H]2C[C@H](N=[N+]=[N-])[C@@H](CO)O2)c(=O)[nH]c1=O` [ZDV, zidovudine], the IC50 in test [1] is 8.7 µM. The “gp120 on CD4+ lymphocytes from the peritoneal cavity (flow cytometry)” value with HIV-1 [2] is “presence of gpl120 on CD4+ cells”. Besides, in the test on HIV-1 [3], the “Hu-PBL-SCID mice HIV-1 negative” value is listed as 3 of 10; the “PCR + Cx: mice PCR-positive and culture-positive (footnote c)” value was 4/8 and 4; the “PCR + Cx: mice PCR-positive but culture-negative (footnote b)” value is 4/8 and 3; the “PCR Only: PCR- mice/analyzed” value is on record as 2/2. Moreover, in the test on HIV-1 [3], the “Peritoneal Lavage Cells PCR+ (mice positive/analyzed)” value is reported as 7/10; the “Peritoneal Lavage and Spleen Mixed Cx+ (cultures positive/analyzed)” value is recorded as 4/8; the “Spleen Cells PCR+ (mice positive/analyzed)” value is reported as 5/10. The IC50 in test [4] is 1.5 µM.
